Source: patent US8586739B2, “Heterocyclic compounds and their uses” (Amgen Inc., priority 2007, dated 2013)

Tests used:
[1] = target: T1, PI3Kδ (Homo sapiens, UniProt O00329); experiment: In vitro enzyme assay of recombinant PI3K (residual ATP bioluminescence); format: biochemical
T1 construct: Full length p110 subunits of PI3k α, β and δ, N-terminally labeled with polyHis tag; polyHis (N); made in house; host or cells: Sf9 insect cells (baculovirus)
Experimental: Recombinant Expression of PI3Ks
Full length p110 subunits of PI3k α, β and δ, N-terminally labeled with polyHis tag, were coexpressed with p85 with Baculo virus expression vectors in sf9 insect cells. P110/p85 heterodimers were purified by sequential Ni-NTA, Q-HP, Superdex-100 chromatography. Purified α, β and δ isozymes were stored at −20° C. in 20 mM Tris, pH 8, 0.2M NaCl, 50% glycerol, 5 mM DTT, 2 mM Na cholate. Truncated PI3Kγ, residues 114-1102, N-terminally labeled with polyHis tag, was expessed with Baculo virus in Hi5 insect cells. The γ isozyme was purified by sequential Ni-NTA, Superdex-200, Q-HP chromatography. The γ isozyme was stored frozen at −80° C. in NaH2PO4, pH 8, 0.2M NaCl, 1% ethylene glycol, 2 mM β-mercaptoethanol.
Assays were performed in 25 μL with the above final concentrations of components in white polyproplyene plates (Costar 3355). Phospatidyl inositol phosphoacceptor, PtdIns(4,5)P2 P4508, was from Echelon Biosciences. The ATPase activity of the alpha and gamma isozymes was not greatly stimulated by PtdIns(4,5)P2 under these conditions and was therefore omitted from the assay of these isozymes. Test compounds were dissolved in dimethyl sulfoxide and diluted with three-fold serial dilutions. The compound in DMSO (1 μL) was added per test well, and the inhibition relative to reactions containing no compound, with and without enzyme was determined. After assay incubation at room temperature, the reaction was stopped and residual ATP determined by addition of an equal volume of a commercial ATP bioluminescence kit (Perkin Elmer EasyLite) according to the manufacturer's instructions, and detected using a AnalystGT luminometer.

[2] = tested on: human B cells; experiment: Human B cells proliferation stimulated by anti-IgM (3H thymidine); format: cell-based; conditions: 72 h, purified human B cells, anti-Human IgM + CD40L-LZ
Experimental: Human B Cells Proliferation stimulate by anti-IgM
Isolate PBMCs from Leukopac or from human fresh blood. Isolate human B cells by using Miltenyi protocol and B cell isolation kit II.—human B cells were Purified by using autoMACS® column.
Activation of Human B Cells
Use 96 well Flat bottom plate, plate 50000/well purified B cells in B cell proffer-ation medium (DMEM+5% FCS, 10 mM Hepes, 50 μM 2-mercaptoethanol); 150 μL medium contain 250 ng/mL CD40L-LZ recombinant protein (Amgen) and 2 μg/mL anti-Human IgM antibody (Jackson ImmunoReseach Lab.#109-006-129), mixed with 50 μL B cell medium containing PI3K inhibitors and incubate 72 h at 37° C. incubator. After 72 h, pulse labeling B cells with 0.5-1 uCi/well ^3H thymidine for overnight ˜18 h, and harvest cell using TOM harvester.

T1 sequence (O00329 whole entry): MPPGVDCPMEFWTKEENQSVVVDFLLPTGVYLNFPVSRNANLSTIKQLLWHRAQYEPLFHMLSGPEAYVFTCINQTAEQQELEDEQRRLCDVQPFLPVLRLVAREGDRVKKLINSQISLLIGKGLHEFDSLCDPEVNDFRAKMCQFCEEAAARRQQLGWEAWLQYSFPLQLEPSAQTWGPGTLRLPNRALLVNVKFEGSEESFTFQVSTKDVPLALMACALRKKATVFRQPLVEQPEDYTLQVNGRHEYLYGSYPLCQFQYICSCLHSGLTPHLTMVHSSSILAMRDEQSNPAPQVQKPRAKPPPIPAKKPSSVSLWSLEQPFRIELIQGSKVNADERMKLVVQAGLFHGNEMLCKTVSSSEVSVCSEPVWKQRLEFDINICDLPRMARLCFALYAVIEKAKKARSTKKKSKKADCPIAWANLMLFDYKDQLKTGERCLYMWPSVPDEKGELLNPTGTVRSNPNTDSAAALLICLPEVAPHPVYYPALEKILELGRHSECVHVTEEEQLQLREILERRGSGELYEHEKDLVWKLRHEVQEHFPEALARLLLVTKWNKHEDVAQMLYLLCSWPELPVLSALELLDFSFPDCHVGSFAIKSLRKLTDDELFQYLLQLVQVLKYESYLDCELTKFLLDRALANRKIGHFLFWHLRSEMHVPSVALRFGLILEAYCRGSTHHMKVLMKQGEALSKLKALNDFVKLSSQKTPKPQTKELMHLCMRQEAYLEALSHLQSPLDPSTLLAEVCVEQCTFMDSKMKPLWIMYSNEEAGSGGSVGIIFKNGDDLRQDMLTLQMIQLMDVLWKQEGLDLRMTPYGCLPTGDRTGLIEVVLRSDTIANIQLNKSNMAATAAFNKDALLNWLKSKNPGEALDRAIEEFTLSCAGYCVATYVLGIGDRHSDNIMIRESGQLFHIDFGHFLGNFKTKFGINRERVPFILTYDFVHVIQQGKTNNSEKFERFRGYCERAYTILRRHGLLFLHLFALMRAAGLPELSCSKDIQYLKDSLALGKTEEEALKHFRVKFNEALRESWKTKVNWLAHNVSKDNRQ
T1 sequence (P27986 whole entry partner): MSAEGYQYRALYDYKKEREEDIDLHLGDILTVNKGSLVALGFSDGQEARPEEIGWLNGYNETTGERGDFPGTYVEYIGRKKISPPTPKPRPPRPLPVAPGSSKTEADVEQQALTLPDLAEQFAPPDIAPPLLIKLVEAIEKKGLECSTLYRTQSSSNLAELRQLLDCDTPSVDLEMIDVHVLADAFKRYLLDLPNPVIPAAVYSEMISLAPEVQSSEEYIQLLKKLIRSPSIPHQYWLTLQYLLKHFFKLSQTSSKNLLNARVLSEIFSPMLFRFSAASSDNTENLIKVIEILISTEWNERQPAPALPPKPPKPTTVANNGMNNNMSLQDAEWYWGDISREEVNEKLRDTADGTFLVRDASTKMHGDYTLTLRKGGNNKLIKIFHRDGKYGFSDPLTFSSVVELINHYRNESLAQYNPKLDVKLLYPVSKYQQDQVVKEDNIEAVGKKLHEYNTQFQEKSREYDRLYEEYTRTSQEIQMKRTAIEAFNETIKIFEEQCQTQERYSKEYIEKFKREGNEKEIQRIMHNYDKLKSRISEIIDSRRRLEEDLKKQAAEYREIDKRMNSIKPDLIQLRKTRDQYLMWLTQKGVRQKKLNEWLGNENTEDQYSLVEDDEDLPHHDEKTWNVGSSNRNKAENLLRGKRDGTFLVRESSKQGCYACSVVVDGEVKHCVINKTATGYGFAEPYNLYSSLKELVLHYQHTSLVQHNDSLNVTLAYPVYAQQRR

Row | Compound | IC50 ([2]; Homo sapiens, B-cell) | further results
1 | Cc1ccccc1-c1nc2c(C)cccc2cc1CNc1ncnc2[nH]cnc12 [Example 1, N-((8-Methyl-2-o-tolylquinolin-3-yl)methyl)-9H-purin-6-amine] |  | IC50 [1]: 84 nM
2 | Clc1ccccc1-c1nc2c(Cl)cccc2cc1CNc1ncnc2[nH]cnc12 [Example 2, N-((8-Chloro-2-(2-chlorophenyl)quinolin-3-yl)-methyl)-9H-purin-6-amine] |  | IC50 [1]: 68 nM
3 | Clc1cccc2cc(CNc3ncnc4[nH]cnc34)c(-c3nccs3)nc12 [N-((8-chloro-2-(1,3-thiazol-2-yl)-3-quinolinyl)methyl)-9H-purin-6-amine] | 209 nM | 
4 | Clc1cccc2cc(CNc3ncnc4[nH]cnc34)c(-c3cn[nH]c3)nc12 [N-((8-chloro-2-(1H-pyrazol-4-yl)-3-quinolinyl)methyl)-9H-purin-6-amine] | 158 nM | 
5 | Fc1ccc(F)c(-c2nc3c(Cl)cccc3cc2CNc2ncnc3[nH]cnc23)c1 [N-((8-chloro-2-(2,5-difluorophenyl)-3-quinolinyl)methyl)-9H-purin-6-amine] | 38.2 nM | 
6 | CC(C)c1ncccc1-c1nc2c(Cl)cccc2cc1CNc1ncnc2[nH]cnc12 [N-((8-chloro-2-(2-(1-methylethyl)-3-pyridinyl)-3-quinolinyl)methyl)-9H-purin-6-amine] | 30.6 nM | 
7 | CC(C)c1ccccc1-c1nc2c(Cl)cccc2cc1CNc1ncnc2[nH]cnc12 [N-((8-chloro-2-(2-(1-methylethyl)phenyl)-3-quinolinyl)methyl)-9H-purin-6-amine] | 17.6 nM | 
8 | Clc1cccc2cc(CNc3ncnc4[nH]cnc34)c(-c3ccccc3-c3nn[nH]n3)nc12 [N-((8-chloro-2-(2-(2H-tetrazol-5-yl)phenyl)-3-quinolinyl)methyl)-9H-purin-6-amine] | 9710 nM | 
9 | CS(=O)(=O)c1ccccc1-c1nc2c(Cl)cccc2cc1CNc1ncnc2[nH]cnc12 [N-((8-chloro-2-(2-(methylsulfonyl)phenyl)-3-quinolinyl)methyl)-9H-purin-6-amine] | 151 nM | 
10 | Fc1ccc(Cl)c(-c2nc3c(Cl)cccc3cc2CNc2ncnc3[nH]cnc23)c1 [N-((8-chloro-2-(2-chloro-5-fluorophenyl)-3-quinolinyl)methyl)-9H-purin-6-amine] | 38.4 nM | 
11 | Clc1ccccc1-c1nc2c(Cl)cccc2cc1CNc1ccnc2[nH]cnc12 [N-((8-chloro-2-(2-chlorophenyl)-3-quinolinyl)methyl)-3H-imidazo[4,5-b]pyridin-7-amine] | 361 nM | 
12 | Cc1ncccc1-c1nc2c(Cl)cccc2cc1CNc1ncnc2[nH]cnc12 [N-((8-chloro-2-(2-methyl-3-pyridinyl)-3-quinolinyl)methyl)-9H-purin-6-amine] | 13.4 nM | 
13 | Clc1cccc2cc(CNc3ncnc4[nH]cnc34)c(-c3ccccn3)nc12 [N-((8-chloro-2-(2-pyridinyl)-3-quinolinyl)methyl)-9H-purin-6-amine] | 34.1 nM | 
14 | Clc1cccc2cc(CNc3ncnc4[nH]cnc34)c(-c3cccs3)nc12 [N-((8-chloro-2-(2-thiophenyl)-3-quinolinyl)methyl)-9H-purin-6-amine] | 104 nM | 
15 | Fc1cc(F)cc(-c2nc3c(Cl)cccc3cc2CNc2ncnc3[nH]cnc23)c1 [N-((8-chloro-2-(3,5-difluorophenyl)-3-quinolinyl)methyl)-9H-purin-6-amine] | 56 nM | 
16 | CC(C)c1cccc(-c2nc3c(Cl)cccc3cc2CNc2ncnc3[nH]cnc23)c1 [N-((8-chloro-2-(3-(1-methylethyl)phenyl)-3-quinolinyl)methyl)-9H-purin-6-amine] | 305 nM | 
17 | Clc1cccc(-c2nc3c(Cl)cccc3cc2CNc2ncnc3[nH]cnc23)c1 [N-((8-chloro-2-(3-chlorophenyl)-3-quinolinyl)methyl)-9H-purin-6-amine] | 411 nM | 
18 | FC1CCCN(c2nc3c(Cl)cccc3cc2CNc2ncnc3[nH]cnc23)C1 (centres unmarked) [N-((8-chloro-2-(3-fluoro-1-piperidinyl)-3-quinolinyl)methyl)-9H-purin-6-amine] | 95.5 nM | 
19 | Fc1cccc(-c2nc3c(Cl)cccc3cc2CNc2ncnc3[nH]cnc23)c1 [N-((8-chloro-2-(3-fluorophenyl)-3-quinolinyl)methyl)-9H-purin-6-amine] | 27.5 nM | 

Row | Compound | IC50 ([2]; Homo sapiens, B-cell) | further results
20 | Cc1cccnc1-c1nc2c(Cl)cccc2cc1CNc1ncnc2[nH]cnc12 [N-((8-chloro-2-(3-methyl-2-pyridinyl)-3-quinolinyOmethyl)-9H-purin-6-amine] |  | IC50 [2]: 79 nM
21 | CC(C)c1ccncc1-c1nc2c(Cl)cccc2cc1CNc1ncnc2[nH]cnc12 [N-((8-chloro-2-(4-(1-methylethyl)-3-pyridinyl)-3-quinolinyl)methyl)-9H-purin-6-amine] | 25.8 nM | 
22 | CC(C)c1ncncc1-c1nc2c(Cl)cccc2cc1CNc1ncnc2[nH]cnc12 [N-((8-chloro-2-(4-(1-methylethyl)-5-pyrimidinyl)-3-quinolinyl)methyl)-9H-purin-6-amine] | 78.9 nM | 
23 | FC(F)(F)c1ccncc1-c1nc2c(Cl)cccc2cc1CNc1ncnc2[nH]cnc12 [N-((8-chloro-2-(4-(trifluoromethyl)-3-pyridinyl)-3-quinolinyl)methyl)-9H-purin-6-amine] | 69.5 nM | 
24 | Fc1ccc(-c2nc3c(Cl)cccc3cc2CNc2ncnc3nc[nH]c23)cc1 [N-((8-chloro-2-(4-fluorophenyl)-3-quinolinyl)methyl)-7H-purin-6-amine] | 265 nM | 
25 | CC(Oc1ccc(F)cc1-c1nc2c(Cl)cccc2cc1CNc1ncnc2[nH]cnc12)c1ccccc1 (centres unmarked) [N-((8-chloro-2-(5-fluoro-2-(1-phenylethoxy)phenyl)-3-quinolinyl)methyl)-9H-purin-6-amine] | 565 nM | 
26 | Fc1ccc(OCc2cccnc2)c(-c2nc3c(Cl)cccc3cc2CNc2ncnc3[nH]cnc23)c1 [N-((8-chloro-2-(5-fluoro-2-(3-pyridinylmethoxy)phenyl)-3-quinolinyl)methyl)-9H-purin-6-amine] | 178 nM | 
27 | COc1ccc(F)cc1-c1nc2c(Cl)cccc2cc1CNc1ncnc2[nH]cnc12 [N-((8-chloro-2-(5-fluoro-2-methoxyphenyl)-3-quinolinyl)methyl)-9H-purin-6-amine] | 27.4 nM | 
28 | Clc1cccc2cc(CNc3ncnc4[nH]cnc34)c(-c3ccns3)nc12 [N-((8-chloro-2-(5-isothiazolyl)-3-quinolinyl)methyl)-9H-purin-6-amine] | 65.6 nM | 
29 | Clc1cccc2cc(CNc3ncnc4[nH]cnc34)c(Oc3ccccc3)nc12 [N-((8-chloro-2-phenoxy-3-quinolinyl)methyl)-9H-purin-6-amine] | 26.2 nM | 
30 | Clc1cccc2cc(CNc3ncnc4[nH]cnc34)c(-c3ccccc3)nc12 [N-((8-chloro-2-phenyl-3-quinolinyl)methyl)-9H-purin-6-amine] | 219 nM | 
31 | Fc1cccc2cc(CNc3ncnc4nc[nH]c34)c(-c3ccccc3)nc12 [N-((8-fluoro-2-phenyl-3-quinolinyl)methyl)-7H-purin-6-amine] | 240 nM | 
32 | C[C@@H](Nc1ncnc2[nH]cnc12)c1cc2c(Cl)cccc2nc1-c1cccc(F)c1 [N-((R)-1-(5-Chloro-2-(3-fluorophenyl)quinolin-3-yl)ethyl)-9H-purin-6-amine] | 33.6 nM | 
33 | C[C@@H](Nc1ncnc2[nH]cnc12)c1nc2cccc(Cl)c2nc1-c1cccc(F)c1 [N-((R)-1-(5-Chloro-3-(3-fluorophenyl)quinoxalin-2-yl)ethyl)-9H-purin-6-amine] | 13.9 nM | 
34 | C[C@H](Nc1ncnc2[nH]cnc12)c1cc2c(Cl)cccc2nc1-c1cccc(F)c1 [N-((S)-1-(5-Chloro-2-(3-fluorophenyl)quinolin-3-yl)ethyl)-9H-purin-6-amine] | 14.2 nM | 
35 | C[C@H](Nc1ncnc2[nH]cnc12)c1nc2cccc(Cl)c2nc1-c1cccc(F)c1 [N-((S)-1-(5-Chloro-3-(3-fluorophenyl)quinoxalin-2-yl)ethyl)-9H-purin-6-amine] | 8.55 nM | 
36 | C[C@H](Nc1ncnc2[nH]cnc12)c1cc2cccc(Cl)c2nc1-c1cccc(F)c1F [N-((S)-1-(8-Chloro-2-(2,3-difluorophenyl)quinolin-3-yl)ethyl)-9H-purin-6-amine] | 7.59 nM | 
37 | C[C@H](Nc1ncnc2[nH]cnc12)c1cc2cccc(Cl)c2nc1-c1cncs1 [N-((S)-1-(8-Chloro-2-(thiazol-5-yl)quinolin-3-yl)ethyl)-9H-purin-6-amine] | 21.9 nM | 
38 | C[C@H](Nc1ncnc2nc[nH]c12)c1cc2cccc(F)c2nc1-c1cccc(F)c1 [N-((S)-1-(8-fluoro-2-(3-fluorophenyl)quinolin-3-yl)ethyl)-7H-purin-6-amine] | 5.15 nM | 
